Laboratory results: patent US6130250A, “Veterinary use of a pleuromutilin derivative” (priority 1996, dated 2000)
Structures can show the parent of a compound that is named as a salt. Where two headings read alike, the source gives them in different places.

Experiments:
Pasteurella multocida = test: MIC against Pasteurella multocida isolates; assay type: cell-based; conditions: for MIC: Pasteurella multocida, 10 isolates
Method: (§1) The minimal inhibitory concentration (MIC) of valnemulin hydrochloride against recent isolates of Pasteurelia multocida, Haemophilus pleuropneumoniae and Haemophilus parasuis originating from porcine respiratory material is determined and compared with tiamulin. […] Three of the Pasteurella isolates were toxigenic strains of Pasteurella multocida. For H. pleuropneumoniae and H. parasuis, on the day before testing a single loopful of each of the pure cultures is inoculated into 10 ml of Todd & Hewitt broth (Unipath CM190) containing 1% donor calf serum and 2 mg per ml of nicotinamide adenine dinucleotide (NAD). For P. multocida, […] a single loopful of each of the pure cultures is inoculated into 10 ml of nutrient broth No. 2 (Unipath CM67) containing 1% donor calf serum. Each of the prepared broth cultures are incubated for 18 hours at 37° C. in 10% CO2. […] For each test compound, standard control cultures of Oxford Staphylococcus aureus NCTC 6571 are also set up to validate the results of the MIC tests. In each case, broth cultures set up from the control organisms are identical to those of the organisms under test. Valnemulin is a hydrochloride, tiamulin is used as the hydrogen fumarate. […] Sensitised agar (Oxoid CM409) containing lysed horse blood (Oxoid SR50) is prepared according to the manufacturer's recommendations and adjusted to pH 7.4 it necessary. […] Four replicate plates are prepared from each dilution. […] After inoculation the growth of the organisms is examined initially by eye followed by microscopic examination on a stereo zoom microscope. The MIC value is taken as the lowest concentration of test compound at which no growth can be detected at the point of inoculation on all four plates by microscopic examination.

Haemophilus parasuis = test: MIC against Haemophilus parasuis isolates; assay type: cell-based; conditions: for MIC: Glaesserella parasuis, 3 isolates
Method: as §1

S. hyodysenteriae = test: Further challenge trial: treatment of swine dysentery; assay type: in vivo, pigs
Excerpt: A group of 60 (3.5 to 4 weeks old) conventionally reared pigs are fed unmedicated food for 14 days then challenged by the oral route with the standard strain of S. hyodysenteriae (P18A). When clinical signs of disease are evident, pigs are allocated to six treatment groups of 8 pigs per group and fed antibiotic containing feed for 10 days, then unmedicated food for a further 14 days. Valnemulin hydrochloride is fed at 50, 75, 100 and 150 ppm and compared with tiamulin hydrogen fumarate fed at 100 ppm and with unmedicated controls. Pigs with a range of clinical signs of disease are included in each treatment group. After allocation to the treatment groups the evidence of clinical disease is assessed daily and a clinical score assigned, rectal swabs are taken twice weekly for isolation of S. hyodysenteriae and all pigs are weighed at regular intervals. Food intake is also recorded. A post-mortem examination is carried out 24 days after challenge and the large intestine of each pig examined for the presence of lesions. Mucosal scrapings are also taken from 4 areas in the large intestine and cultured for S. hyodysenteriae.

Mycoplasma hyosynoviae = test: MIC assay, 7 field isolates of Mycoplasma hyosynoviae; assay type: cell-based; conditions: for MIC: Mycoplasma, 7 field isolates
Method: Tissue samples are obtained from the lungs of pigs from various enzootic pneumonia of pigs (EPP)--affected herds. Samples are shipped on dry ice for culture. Four isolates from lung samples initially isolated for recovery of Mycoplasma hyopneumoniae were reisolated for Mycoplasma hyosynoviae after it had been noted from the lung samples submitted (re-stored at -70° C.), during culture for M. hyopneumoniae, that some samples yielded luxuriant growth of colonies having the typical morphology of Mycoplasma hyosynoviae. Three further isolates were recovered from other lung samples provided. All isolates were serologically identified by disc growth inhibition with specific rabbit antiserum raised against Mycoplasma hyosynoviae. A commerically available solid medium (Mycoplasma Experience Ltd.) is used to isolate M. hyosynoviae from lung tissue. A liquid medium (Mycoplasma Experience Ltd.) containing phenol red and arginine (pH 7.0) is used for the MIC assay.
Stock solutions of test compound are prepared at 1 mg/ml concentration in deionised water, sterilised by filtration through 0.2μ pore size membrane filters (Sartorius Minisart, N) and stored at -20° C. For use in the MIC tests the stock solutions are diluted in liquid medium to double the final concentrations required. MIC tests are carried out according to the method of Tanner and Wu, Avian Diseases 36 (1992) 714-717. Actively growing challenge cultures are prepared either from 1 ml aliquots of broth cultures stored at -70° C. or from cultures stored on agar at -70° C. The challenge cultures are diluted to give a target titre of 10^3 to 10^5 colour changing units/ml. 0.1 ml aliquots of challenge inocula are mixed with 0.1 ml aliquots of antibiotic dilution in microtitre wells. Each microtitre plate contains uninoculated media at pH 7.6 (end point control) and antibiotic-free inoculated challenge controls. All plates are sealed with adhesive film and incubated aerobically at 36° C. MICs are recorded when the colour change in the challenge control wells matches the pH of the end point control. The MIC is the lowest concentration showing no colour change.

[1] = tested on: Haemophilus pleuropneumoniae; test: MIC against Haemophilus pleuropneumoniae isolates; assay type: cell-based; conditions: for MIC: Actinobacillus pleuropneumoniae, 10 isolates
Method: as §1

Mycoplasma gallisepticum = test: Challenge study, prevention of Mycoplasma gallisepticum infection; assay type: in vivo, male broiler chickens; conditions: for prevention of clinical signs and mortality: tiamulin three doses
Method: Groups of male broiler chickens are infected with a virulent strain of Mycoplasma gallisepticum (MG) and each group medicated respectively with one of the following: valnemulin (concentrations of 0.00312, 0.00625, 0.0125 and 0.025%), tiamulin (0.00625, 0.0125 and 0.025%), and tylosin (0.05%). Infection is effected on day 2 by injection of 0.1 ml of Mycoplasma gallisepticum culture containing approximately 10^6 cfu of viable organisms into each lung (Jordan, F. T. W., The Veterinary Record 127 [1990] 502) and medication is commenced within an hour of infection and continued for three consecutive days. There is also an infected untreated group and an uninfected group.

[2] = tiamulin 100 ppm, treatment period
[3] = tylosin 0.05%, tiamulin, valnemulin all but the lowest dose
[4] = valnemulin 0.0125 and 0.025%, tylosin 0.05%

C=C[C@]1(C)C[C@@H](OC(=O)CSCCN(CC)CC)[C@]2(C)[C@H](C)CC[C@]3(CCC(=O)[C@H]32)[C@@H](C)[C@@H]1O [tiamulin hydrogen fumarate]
MIC (Pasteurella multocida; 18 h, read-out: MIC mean): 9.2 µg/mL | MIC (Pasteurella multocida; read-out: MIC range): 4 to 16 µg/mL | MIC (Haemophilus parasuis; 18 h, read-out: MIC mean): 0.7 µg/mL | MIC (Haemophilus parasuis; read-out: MIC range): 0.5 to 1 µg/mL | day by which improvement was seen in surviving pigs (S. hyodysenteriae; tiamulin 100 ppm): ≤ 8 days | mean clinical score (S. hyodysenteriae; tiamulin 100 ppm): 30 | mortality in words (S. hyodysenteriae; tiamulin 100 ppm): reduced mortality compared to unmedicated controls but did not prevent some deaths | pigs with swine dysentery in post treatment period (S. hyodysenteriae; tiamulin 100 ppm, last day of trial): one pig | animals that died or required euthanasia (S. hyodysenteriae; [2]): 3 animals | daily live weight gain (DLWG) (S. hyodysenteriae; [2]): 0.1 | feed conversion ratio (FCR) (S. hyodysenteriae; [2]): 6.4 | MIC (Mycoplasma hyosynoviae): 0.0025 to 0.025 µg/mL | MIC ([1]; 18 h, read-out: MIC mean): 4.5 µg/mL | MIC ([1]; read-out: MIC range): 0.125 to 16 µg/mL | recovery of MG during life or at necropsy (Mycoplasma gallisepticum; tiamulin highest dose (0.025%), tylosin 0.05%): not recovered | weight gain (Mycoplasma gallisepticum; [3]): next but significantly less (p<0.05) | prevention of clinical signs and mortality (Mycoplasma gallisepticum; [4]): equally satisfactory

C=C[C@]1(C)C[C@@H](OC(=O)CSC(C)(C)CNC(=O)[C@H](N)C(C)C)[C@]2(C)[C@H](C)CC[C@]3(CCC(=O)[C@H]32)[C@@H](C)[C@@H]1O [valnemulin hydrochloride, 14-O-[1-[(R)-2-amino-3-methylbutyrylamino]-2-methylpropan-2-ylthioacetyl]mutilin]
mean increase in activity compared with tiamulin (Pasteurella multocida; P. multocida): two and a half fold | MIC (Pasteurella multocida; 18 h, read-out: MIC mean): 3.8 µg/mL | MIC (Pasteurella multocida; read-out: MIC range): 2 to 8 µg/mL | MIC (Haemophilus parasuis; 18 h, read-out: MIC mean): 0.25 µg/mL | MIC (Haemophilus parasuis; read-out: MIC range): 0.25 µg/mL | mean increase in activity compared with tiamulin (Haemophilus parasuis; H. parasuis): three fold | shedding of S. hyodysenteriae in faeces (S. hyodysenteriae; all levels of valnemulin, after withdrawal of medicated feed): prevented by all levels of valnemulin | p of clinical scores, valnemulin vs tiamulin (S. hyodysenteriae; days 3 to 10, all valnemulin groups): < 0.001 | survival (S. hyodysenteriae; valnemulin 50, 75, 100, 150 ppm): All pigs treated with valnemulin survived | recovery from clinical swine dysentery compared to tiamulin (S. hyodysenteriae; valnemulin 50, 75, 100 and 150 ppm): reduction in the number of days that were needed to recover | pigs with clinical signs in post treatment period (S. hyodysenteriae; valnemulin 50 ppm): one pig | pigs with clinical swine dysentery at post-mortem (S. hyodysenteriae; valnemulin 50 ppm): 1 pig | pigs with reddening of the large intestine (S. hyodysenteriae; valnemulin 50 ppm): one other pig | time to clinical signs after withdrawal of medicated feed (S. hyodysenteriae; valnemulin 50 ppm): 4 days | post-mortem lesions of swine dysentery (S. hyodysenteriae; valnemulin 75, 100 or 150 ppm): not seen | pigs with S. hyodysenteriae in mucosal scrapings (S. hyodysenteriae; valnemulin 75 ppm): One pig | efficacy in words (S. hyodysenteriae; valnemulin 100 ppm): highly effective | day by which clinical disease was not seen (S. hyodysenteriae; valnemulin, all levels): ≤ 5 days | MIC (Mycoplasma hyosynoviae): 0.0001 to 0.0005 µg/mL | sensitivity of isolates in words (Mycoplasma hyosynoviae; seven field isolates): much higher than for the other two compounds | MIC ([1]; 18 h, read-out: MIC mean): 0.85 µg/mL | MIC ([1]; read-out: MIC range): 0.125 to 4 µg/mL | mean increase in activity compared with tiamulin ([1]; H. pleuropneumoniae): five and a half fold | weight gain (Mycoplasma gallisepticum; [3]): next but significantly less (p<0.05) | prevention of MG infection vs reference compounds (Mycoplasma gallisepticum; valnemulin 0.0125 and 0.025%): as effective as the reference compounds | prevention of clinical signs and mortality (Mycoplasma gallisepticum; [4]): equally satisfactory | lesions (frequency and severity) (Mycoplasma gallisepticum; valnemulin 0.0125 and 0.025%, tiamulin, tylosin 0.05%): then the two higher doses of valnemulin | effect on lesions (Mycoplasma gallisepticum; valnemulin 2 lower doses (0.00312, 0.00625%)): less effective | birds with MG isolated (Mycoplasma gallisepticum; valnemulin highest dose (0.025%)): only one bird | weight gain (Mycoplasma gallisepticum; valnemulin lowest dose): lowest weight gains
